Results on 24 compounds are retold here after patent US20090270338A1, “DIARYL-CYCLYLALKYL DERIVATIVES AS CALCIUM CHANNEL BLOCKERS” (priority 2008, published 2009).

Test [1] deals with T-type over L-type channels. The note with it: cited from earlier work.
For another test, the target named is T1, Human Cav2.2 channels (Homo sapiens, UniProt Q00975).
T1 construct: expressed in transfected cells
The experiment in a line: Fluorescent assay for Cav2.2 channels using potassium depolarization (Table 2, In Vitro Activity, Cav 2.2 Activity). The test is classed as cell-based. The note with it: for inhibition at 10 µM: read-out: % Inh at 10 μM; for inhibition at 30 µM: read-out: % Inh at 30 μM; for IC50: 30 mM K. The text has this: Human Cav2.2 channels were stably expressed in HEK293 cells along with alpha2-delta and beta subunits of voltage-gated calcium channels. An inwardly rectifying potassium channel (Kir2.3) was also expressed in these cells to allow more precise control of the cell membrane potential by extracellular potassium concentration. At low bath potassium concentration, the membrane potential is relatively negative, and is depolarized as the bath potassium concentration is raised. In this way, the bath potassium concentration can be used to regulate the voltage-dependent conformations of the channels. Compounds are incubated with cells in the presence of low (4 mM) potassium or elevated (12, 25 or 30 mM) potassium to determine the affinity for compound block of resting (closed) channels at 4 mM potassium or affinity for block of open and inactivated channels at 12, 25 or 30 mM potassium. After the incubation period, Cav2.2 channel opening is triggered by addition of higher concentration of potassium (70 mM final concentration) to further depolarize the cell. The degree of state-dependent block can be estimated from the inhibitory potency of compounds after incubation in different potassium concentrations.
Calcium influx through Cav2.2 channels is determined using a calcium sensitive fluorescent dye in combination with a fluorescent plate reader. Fluorescent changes were measured with either a VIPR (Aurora Instruments) or FLIPR (Molecular Devices) plate reader.
1. Seed cells in Poly-D-Lysine Coated 96 or 384-well plate and keep in a 37° C.-10% CO2 incubator overnight 2. Remove media, wash cells with 0.2 mL (96-well plate) or 0.05 mL (384-well plate) Dulbecco's Phosphate Buffered Saline (D-PBS) with calcium & magnesium (Invitrogen; 14040) 3. Add 0.1 mL (96-well plate) or 0.05 mL (384-well plate) of 4 μM fluor-4 (Molecular Probes; F-14202) and 0.02% Pluronic acid (Molecular Probes; P-3000) prepared in D-PBS with calcium & magnesium (Invitrogen; 14040) supplemented with 10 mM Glucose & 10 mM Hepes/NaOH; pH 7.4 4. Incubate in the dark at 25° C. for 60-70 min 5. Remove dye, wash cells with 0.1 mL (96-well plate) or 0.06 mL (384-well plate) of 4, 12, 25, or 30 mM Potassium Pre-polarization Buffer (PPB) 6. Add 0.1 mL (96-well plate) or 0.03 mL (384-well plate) of 4, 12, 25, 30 mM PPB with or without test compound 7. Incubate in the dark at 25° C. for 30 min 8. Read cell plate on VIPR instrument, Excitation=480 nm, Emission=535 nm 9. With VIPR continuously reading, add 0.1 mL (96-well plate) or 0.03 mL (384-well plate) of Depolarization Buffer (DB), which is 2× the final assay concentration, to the cell plate.

T1 sequence (Q00975 whole entry): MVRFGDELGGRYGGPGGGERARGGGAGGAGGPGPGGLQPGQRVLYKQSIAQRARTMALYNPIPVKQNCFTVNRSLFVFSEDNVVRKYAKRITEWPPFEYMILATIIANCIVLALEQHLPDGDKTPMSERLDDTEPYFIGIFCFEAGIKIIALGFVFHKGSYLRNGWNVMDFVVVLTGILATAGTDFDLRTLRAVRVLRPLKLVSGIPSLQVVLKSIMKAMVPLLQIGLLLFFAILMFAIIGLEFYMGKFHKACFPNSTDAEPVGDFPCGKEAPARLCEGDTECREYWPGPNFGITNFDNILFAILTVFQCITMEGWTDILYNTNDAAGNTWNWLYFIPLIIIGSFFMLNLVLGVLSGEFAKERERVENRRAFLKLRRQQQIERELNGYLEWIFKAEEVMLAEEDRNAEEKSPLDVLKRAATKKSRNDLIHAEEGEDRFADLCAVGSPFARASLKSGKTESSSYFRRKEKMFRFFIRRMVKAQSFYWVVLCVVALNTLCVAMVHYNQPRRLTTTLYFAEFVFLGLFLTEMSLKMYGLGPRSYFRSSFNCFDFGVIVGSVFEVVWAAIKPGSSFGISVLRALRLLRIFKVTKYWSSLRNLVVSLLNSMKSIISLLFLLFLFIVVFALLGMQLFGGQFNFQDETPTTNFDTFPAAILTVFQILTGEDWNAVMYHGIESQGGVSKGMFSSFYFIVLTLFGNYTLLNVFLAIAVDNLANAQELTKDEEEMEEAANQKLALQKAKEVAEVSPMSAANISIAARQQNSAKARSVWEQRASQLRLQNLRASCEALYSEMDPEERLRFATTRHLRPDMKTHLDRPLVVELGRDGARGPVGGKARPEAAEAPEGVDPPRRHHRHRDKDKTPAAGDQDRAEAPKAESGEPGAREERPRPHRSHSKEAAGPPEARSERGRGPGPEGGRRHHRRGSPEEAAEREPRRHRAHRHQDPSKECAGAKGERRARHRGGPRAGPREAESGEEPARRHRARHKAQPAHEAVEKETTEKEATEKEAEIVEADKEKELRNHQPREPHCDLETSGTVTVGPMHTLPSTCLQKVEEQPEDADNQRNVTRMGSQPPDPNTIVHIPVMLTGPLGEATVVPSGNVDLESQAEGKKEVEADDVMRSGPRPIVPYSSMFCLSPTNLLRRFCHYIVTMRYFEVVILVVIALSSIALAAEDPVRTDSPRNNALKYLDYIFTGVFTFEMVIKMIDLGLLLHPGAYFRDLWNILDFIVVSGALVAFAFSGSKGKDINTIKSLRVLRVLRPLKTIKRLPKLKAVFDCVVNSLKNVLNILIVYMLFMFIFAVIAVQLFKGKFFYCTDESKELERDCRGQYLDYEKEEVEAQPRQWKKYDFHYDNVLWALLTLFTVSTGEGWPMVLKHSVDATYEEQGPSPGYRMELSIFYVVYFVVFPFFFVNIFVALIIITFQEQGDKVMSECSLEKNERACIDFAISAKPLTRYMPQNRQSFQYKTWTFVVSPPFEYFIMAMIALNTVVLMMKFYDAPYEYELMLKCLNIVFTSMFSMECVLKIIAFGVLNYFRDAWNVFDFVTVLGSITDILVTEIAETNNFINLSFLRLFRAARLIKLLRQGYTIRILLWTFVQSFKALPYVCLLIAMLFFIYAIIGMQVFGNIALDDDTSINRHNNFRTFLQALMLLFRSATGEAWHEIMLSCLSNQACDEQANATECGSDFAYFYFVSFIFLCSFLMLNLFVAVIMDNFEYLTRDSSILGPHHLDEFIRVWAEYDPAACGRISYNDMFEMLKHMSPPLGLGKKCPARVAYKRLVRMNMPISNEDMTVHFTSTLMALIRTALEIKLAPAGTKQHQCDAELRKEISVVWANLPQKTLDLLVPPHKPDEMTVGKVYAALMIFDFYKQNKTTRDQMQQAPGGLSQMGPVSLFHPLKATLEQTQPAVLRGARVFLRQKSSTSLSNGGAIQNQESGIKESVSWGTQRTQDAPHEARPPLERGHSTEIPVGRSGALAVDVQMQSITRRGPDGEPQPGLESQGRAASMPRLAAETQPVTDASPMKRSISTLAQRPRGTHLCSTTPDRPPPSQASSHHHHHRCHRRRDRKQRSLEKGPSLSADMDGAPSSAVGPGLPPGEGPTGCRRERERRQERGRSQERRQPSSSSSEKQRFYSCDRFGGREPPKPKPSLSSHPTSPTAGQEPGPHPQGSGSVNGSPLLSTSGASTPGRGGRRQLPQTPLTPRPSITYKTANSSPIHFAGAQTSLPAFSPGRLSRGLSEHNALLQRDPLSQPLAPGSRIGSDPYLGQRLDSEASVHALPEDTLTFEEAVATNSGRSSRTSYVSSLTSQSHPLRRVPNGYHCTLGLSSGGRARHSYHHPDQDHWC
T1 sequence (P54289 25-1103 partner): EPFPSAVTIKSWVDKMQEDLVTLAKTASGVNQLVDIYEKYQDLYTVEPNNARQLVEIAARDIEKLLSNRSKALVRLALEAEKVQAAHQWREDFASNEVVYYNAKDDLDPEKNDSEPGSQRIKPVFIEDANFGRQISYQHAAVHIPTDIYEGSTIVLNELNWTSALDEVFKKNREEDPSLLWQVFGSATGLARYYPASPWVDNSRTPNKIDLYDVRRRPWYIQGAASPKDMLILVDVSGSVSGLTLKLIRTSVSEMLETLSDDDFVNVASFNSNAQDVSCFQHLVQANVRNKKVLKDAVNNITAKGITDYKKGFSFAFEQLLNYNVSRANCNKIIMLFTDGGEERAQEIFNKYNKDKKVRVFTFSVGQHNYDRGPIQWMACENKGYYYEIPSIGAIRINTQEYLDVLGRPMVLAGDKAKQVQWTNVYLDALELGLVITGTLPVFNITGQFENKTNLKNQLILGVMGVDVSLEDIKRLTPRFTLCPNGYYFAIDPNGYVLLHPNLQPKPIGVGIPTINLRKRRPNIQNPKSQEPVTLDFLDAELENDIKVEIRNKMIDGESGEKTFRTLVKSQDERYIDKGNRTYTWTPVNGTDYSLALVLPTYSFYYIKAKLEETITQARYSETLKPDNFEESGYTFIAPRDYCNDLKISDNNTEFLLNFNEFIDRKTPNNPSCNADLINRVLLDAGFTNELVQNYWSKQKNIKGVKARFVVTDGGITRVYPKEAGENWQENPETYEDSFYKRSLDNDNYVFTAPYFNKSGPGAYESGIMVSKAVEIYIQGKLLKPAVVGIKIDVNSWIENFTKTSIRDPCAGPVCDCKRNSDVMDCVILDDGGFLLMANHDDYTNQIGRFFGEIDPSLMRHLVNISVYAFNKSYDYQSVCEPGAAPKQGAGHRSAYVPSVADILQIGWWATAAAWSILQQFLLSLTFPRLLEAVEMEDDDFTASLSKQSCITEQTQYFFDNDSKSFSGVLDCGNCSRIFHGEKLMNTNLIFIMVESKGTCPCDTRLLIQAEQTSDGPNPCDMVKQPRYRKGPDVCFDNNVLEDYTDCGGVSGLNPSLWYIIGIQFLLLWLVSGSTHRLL
T1 sequence (P54284 whole entry partner): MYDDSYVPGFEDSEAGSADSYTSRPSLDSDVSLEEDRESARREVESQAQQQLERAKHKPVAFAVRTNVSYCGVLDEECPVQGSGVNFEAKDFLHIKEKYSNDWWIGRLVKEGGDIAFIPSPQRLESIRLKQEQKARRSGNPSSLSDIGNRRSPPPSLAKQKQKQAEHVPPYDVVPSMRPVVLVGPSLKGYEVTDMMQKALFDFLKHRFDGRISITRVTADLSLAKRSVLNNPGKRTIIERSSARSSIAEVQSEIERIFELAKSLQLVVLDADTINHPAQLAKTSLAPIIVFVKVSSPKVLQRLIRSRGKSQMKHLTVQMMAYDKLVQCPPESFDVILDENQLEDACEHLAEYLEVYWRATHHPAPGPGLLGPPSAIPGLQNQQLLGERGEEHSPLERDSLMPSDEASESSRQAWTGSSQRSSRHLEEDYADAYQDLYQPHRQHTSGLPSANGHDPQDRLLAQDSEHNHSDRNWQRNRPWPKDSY

Take `COCC(=O)O[C@]1(CCN(C)CCCc2nc3ccccc3[nH]2)CCc2cc(F)ccc2[C@@H]1C(C)C` [Mibefradil]: the “fold selective for T-type over L-type channels” value in test [1] is recorded as 10-30 fold.

As for `CS(=O)(=O)c1ccc(CNC(=O)C2(NC(=O)CC(c3ccccc3)c3ccccc3)CCCCC2)cc1` [Compound 17, 1-(3,3-diphenylpropanamido)-N-(4-(methylsulfonyl)benzyl)cyclohexane carboxamide], on Human Cav2.2 channels, the inhibition at 10 µM came to 86% and the inhibition at 30 µM came out at 96%.

Take `Cc1cc(CNC(=O)C2(NC(=O)CC(c3ccccc3)c3ccccc3)CCCCC2)no1` [Compound 20, 1-(3,3-diphenylpropanamido)-N-((5-methylisoxazol-3-yl)methyl)cyclohexanecarboxamide]: on Human Cav2.2 channels, the inhibition at 10 µM came to 71% and the inhibition at 30 µM turned out to be 86%.

For “3,3-diphenyl-N-(1-(4-phenylpiperazine- 1-carbonyl)cyclohexyl)propanamide [Compound 5]”, at Human Cav2.2 channels, the “% Inh at 10 μM” value worked out at 92%, the “% Inh at 30 μM” value was found to be 84% and the IC50 stood at 380 nM.

In the case of `Cc1ccnc(N2CCN(C(=O)C3(NC(=O)CC(c4ccccc4)c4ccccc4)CCCCC3)CC2)c1` [Compound 16, N-(1-(4-(4-methylpyridin-2-yl)piperazine-1-carbonyl)cyclohexyl)-3,3-diphenylpropanamide], at Human Cav2.2 channels, the inhibition at 10 µM is 81%, the inhibition at 30 µM was determined as 85% and the IC50 came to 2750 nM.

`O=C(CC(c1ccccc1)c1ccccc1)NC1(C(=O)NCc2ccc(F)cc2)CCCCC1` [Compound 8, 1-(3,3-diphenylpropanamido)-N-(4-fluorobenzyl)cyclohexanecarboxamide]: at Human Cav2.2 channels, the inhibition at 10 µM came to 99%, the inhibition at 30 µM worked out at 102% and the IC50 stood at 190 nM.

On to `O=C(CC(c1ccccc1)c1ccccc1)NC1(C(=O)N2CCN(c3cccc(F)c3)CC2)CCCCC1` [Compound 15, N-(1-(4-(3-fluorophenyl)piperazine-1-carbonyl)cyclohexyl)-3,3-diphenylpropanamide], for which, on Human Cav2.2 channels, the inhibition at 10 µM worked out at 72%, the inhibition at 30 µM was found to be 81% and the IC50 amounted to 330 nM.

On to `Cc1ccc(N2CCN(C(=O)C3(NC(=O)CC(c4ccccc4)c4ccccc4)CCCCC3)CC2)cc1C` [Compound 12, N-(1-(4-(3,4-dimethylphenyl)piperazine-1-carbonyl)cyclohexyl)-3,3-diphenylpropanamide], for which, at Human Cav2.2 channels, the inhibition at 10 µM was 95%, the inhibition at 30 µM is 98% and the IC50 came out at 370 nM.

Consider `Cc1cccnc1CNC(=O)C1(NC(=O)CC(c2ccccc2)c2ccccc2)CCCCC1` [Compound 23, 1-(3,3-diphenylpropanamido)-N-((3-methylpyridin-2-yl)methyl)cyclohexanecarboxamide], for which, on Human Cav2.2 channels, the inhibition at 10 µM was determined as 81% and the inhibition at 30 µM was found to be 88%.

With `COc1ccc(CNC(=O)C2(NC(=O)CC(c3ccccc3)c3ccccc3)CCCCC2)cc1` [Compound 9, 1-(3,3-diphenylpropanamido)-N-(4-methoxybenzyl)cyclohexane carboxamide], on Human Cav2.2 channels, the inhibition at 10 µM turned out to be 97%, the inhibition at 30 µM worked out at 102% and the IC50 turned out to be 170 nM.

With “N-(1-(4-(4-fluorophenyl)piperazine-1- carbonyl)cyclohexyl)-3,3- diphenylpropanamide [Compound 6]”, at Human Cav2.2 channels, the “% Inh at 10 μM” value is recorded as 99%, the “% Inh at 30 μM” value was determined as 100% and the half-inhibitory concentration (IC50) was 280 nM.

Turning to `CC(C)(C)N1CCN(C(=O)C2(NC(=O)CC(c3ccccc3)c3ccccc3)CCCCC2)CC1` [Compound 1, N-(1-(4-tert-butylpiperazine-1-carbonyl)cyclohexyl)-3,3-diphenylpropanamide], on Human Cav2.2 channels, the inhibition at 10 µM was found to be 42% and the inhibition at 30 µM came to 65%.

Take `O=C(CC(c1ccccc1)c1ccccc1)NC1(C(=O)N2CCN(c3ccc(Cl)cc3)CC2)CCCCC1` [Compound 11, N-(1-(4-(4-chlorophenyl)piperazine-1-carbonyl)cyclohexyl)-3,3-diphenylpropanamide]: at Human Cav2.2 channels, the inhibition at 10 µM came out at 93%, the inhibition at 30 µM came out at 101% and the IC50 is 690 nM.

On to `O=C(CC(c1ccccc1)c1ccccc1)NC1(C(=O)NCc2ccc(F)cc2F)CCCCC1` [Compound 10, N-(2,4-difluorobenzyl)-1-(3,3-diphenylpropanamido)cyclohexanecarboxamide], for which, at Human Cav2.2 channels, the inhibition at 10 µM is 96%, the inhibition at 30 µM was 101% and the IC50 came out at 430 nM.

Turning to `O=C(CC(c1ccccc1)c1ccccc1)NC1(C(=O)NCc2cccc(C(F)(F)F)c2)CCCCC1` [Compound 7, 1-(3,3-diphenylpropanamido)-N-(3-(trifluoromethyl)benzyl)cyclohexanecar-boxamide], on Human Cav2.2 channels, the inhibition at 10 µM was 99%, the inhibition at 30 µM came out at 102% and the IC50 is 190 nM.

`Cc1cnccc1CNC(=O)C1(NC(=O)CC(c2ccccc2)c2ccccc2)CCCCC1` [Compound 21, 1-(3,3-diphenylpropanamido)-N-((3-methylpyridin-4-yl)methyl)cyclohexanecarboxamide]: on Human Cav2.2 channels, the inhibition at 10 µM was found to be 14% and the inhibition at 30 µM came to 51%.

With `Cc1ccccc1C(CC(=O)NC1(C(=O)N2CCN(c3ccccc3)CC2)CCCCC1)c1ccccc1C` [Compound 3, N-(1-(4-phenylpiperazine-1-carbonyl)cyclohexyl)-3,3-dio-tolylpropanamide], on Human Cav2.2 channels, the inhibition at 10 µM was 95%, the inhibition at 30 µM turned out to be 96% and the IC50 is 440 nM.

Turning to `O=C(CC(c1ccccc1)c1ccccc1)NC1(C(=O)N2CCN(c3ccc(F)cc3F)CC2)CCCCC1` [Compound 14, N-(1-(4-(2,4-difluorophenyl)piperazine-1-carbonyl)cyclohexyl)-3,3-diphenylpropanamide], on Human Cav2.2 channels, the inhibition at 10 µM came out at 81%, the inhibition at 30 µM is 86% and the IC50 turned out to be 320 nM.

For `O=C(CC(c1ccccc1)c1ccccc1)NC1(C(=O)N2CCN(c3ccc(C(F)(F)F)cc3)CC2)CCCCC1` [Compound 13, 3,3-diphenyl-N-(1-(4-(4-(trifluoromethyl)phenyl)piperazine-1-carbonyl)cyclohexyl)propanamide], at Human Cav2.2 channels, the inhibition at 10 µM came to 96%, the inhibition at 30 µM is 95% and the concentration for half-maximal inhibition (IC50) came out at 590 nM.

Turning to `O=C(CC(c1ccccc1)c1ccccc1)NC1(C(=O)NCc2ccc(O)cc2)CCCCC1` [Compound 18, 1-(3,3-diphenylpropanamido)-N-(4-hydroxybenzyl)cyclohexane carboxamide], at Human Cav2.2 channels, the inhibition at 10 µM is 87% and the inhibition at 30 µM came out at 97%.

Take `O=C(CC(c1ccccc1)c1ccccc1)NC1(C(=O)NCc2nccs2)CCCCC1` [Compound 22, 1-(3,3-diphenylpropanamido)-N-(thiazol-2-ylmethyl)cyclohexane carboxamide]: on Human Cav2.2 channels, the inhibition at 10 µM came out at 55% and the inhibition at 30 µM was determined as 77%.

With `O=C(CC(c1ccccc1)c1ccccc1)NC1(C(=O)N2CCN(c3ccccc3)CC2)CCCCC1` [Compound 4, 3,3-diphenyl-N-(1-(4-phenylpiperazine-1-carbonyl)cyclohexyl)propanamide], at Human Cav2.2 channels, the inhibition at 10 µM turned out to be 80%, the inhibition at 30 µM came out at 90% and the IC50 was 340 nM.

In the case of `Cc1ccccc1C(CC(=O)NC1(C(=O)N2CCN(C(C)(C)C)CC2)CCCCC1)c1ccccc1C` [Compound 2, N-(1-(4-tert-butylpiperazine-1-carbonyl)cyclohexyl)-3,3-dio-tolylpropanamide], at Human Cav2.2 channels, the inhibition at 10 µM worked out at 67% and the inhibition at 30 µM is 92%.

`Cc1cnc(CNC(=O)C2(NC(=O)CC(c3ccccc3)c3ccccc3)CCCCC2)cn1` [Compound 19, 1-(3,3-diphenylpropanamido)-N-((5-methylpyrazin-2-yl)methyl)cyclohexanecarboxamide]: on Human Cav2.2 channels, the inhibition at 10 µM is 62% and the inhibition at 30 µM stood at 93%.
